{"source": "patent US11986790B2", "about": "“Method for preparing microcapsules” (LG Household & Health Care Ltd., priority 2018, dated 2024)", "assay": "Water solubility of acrylic monomers", "format": "physicochemical", "details": "25 °C", "source_text": "Specific examples of such acrylic monomers may include one or more selected from the group consisting of dipropyleneglycol diacrylate, diethyleneglycol diacrylate, and tetraethyleneglycol dimethacrylate, as shown in the following Table 1.", "data": [{"smiles": "C=C(C)C(=O)OCCOCCOCCOCCOC(=O)C(=C)C", "note": "[Tetraethylene glycol Dimethacrylate]", "values": [{"measurement": "solubility", "setting": "Table 1, room temperature of 25° C.", "result": "52 to 53", "unit": "mg/mL"}, {"measurement": "solubility", "setting": "stated in the example text for the monomer used", "result": 52, "unit": "mg/mL"}]}]}
